Drawing on publication PMC12561453, “Synthesis and Structure–Activity Relationship Study of 2-(amino)quinazolin-4(3H)-one Derivatives as Potential Inhibitors of Methicillin-Resistant Staphylococcus aureus (MRSA)” (Antibiotics, 2025), this text covers MIC50, IC50 and inhibition for two compounds.

Molecules are shown by their SMILES. pIC50: −log10 of the molar value. In brackets after ≈: the same amount, converted by molar mass.

The term MIC50 denotes an inhibitory concentration at the 50% level, which refers to growth in some studies and to a panel of isolates in others. The term pIC50 denotes −log10 of the IC50, conventionally taken in molar units. Usually inhibition stands for the change of the read-out against control, counted positive when it falls. High values mean a strong effect, low ones a weak effect.

For one data set, the system named is S. aureus ATCC25923. As to the kind of experiment: Broth microdilution dose-response, S. aureus ATCC25923. The data set is classed as cell-based, Staphylococcus aureus. As to conditions: Staphylococcus aureus, ATCC25923, methicillin-sensitive strain; OD600 after 18–24 h; read-out: ATCC25923 MIC50. In general terms: Dilution methods test growth across graded concentrations, often in twofold steps.

Data set [1] is described as follows: Cytotoxicity in VERO cells. The data set is classed as cell-based. The settings on record: African green monkey, VERO cells (kidney cell line). On the procedure: (§1) Table S1. Results of hERG binding assay and cytotoxicity of 6l and 6y
(§2) Compound hERGa CytotoxicityVERO HFL-1 L929 NIH 3T3 CHO-K1
(§3) a % inhibition at 10 μM concentrations. b IC50 values in various mammalian cell lines. […]

A short description of data set [2]: Cytotoxicity in NIH 3T3 cells. The data set is classed as cell-based. As to conditions: mouse, NIH 3T3 cells (embryonic fibroblast cell line). The method, then: as §1, §2, §3
A further data set deals with T1, CYP1A2 (Homo sapiens, UniProt P05177).
T1 construct: from tissue; host or cells: human liver microsomes
T1 sequence (P05177 1-516): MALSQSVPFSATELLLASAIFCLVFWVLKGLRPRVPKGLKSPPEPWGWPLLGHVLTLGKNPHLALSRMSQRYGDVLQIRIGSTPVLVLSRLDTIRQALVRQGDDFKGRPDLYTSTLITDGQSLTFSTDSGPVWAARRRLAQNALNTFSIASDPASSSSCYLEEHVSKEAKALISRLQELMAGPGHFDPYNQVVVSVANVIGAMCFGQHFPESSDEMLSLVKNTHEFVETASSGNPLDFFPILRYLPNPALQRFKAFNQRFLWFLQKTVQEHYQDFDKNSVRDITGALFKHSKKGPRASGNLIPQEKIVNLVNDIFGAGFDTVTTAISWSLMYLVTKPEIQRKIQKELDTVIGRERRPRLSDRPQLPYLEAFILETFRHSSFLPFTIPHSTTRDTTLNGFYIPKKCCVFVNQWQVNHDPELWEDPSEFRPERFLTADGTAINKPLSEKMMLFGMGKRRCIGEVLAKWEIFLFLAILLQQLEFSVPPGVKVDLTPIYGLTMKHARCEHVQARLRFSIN
The data set is described as follows: CYP inhibition in human liver microsomes, 1A2. The data set is classed as in vitro ADME. On the procedure: (§4) Table S2. Result of microsomal stability, plasma protein binding rate, and CYP inhibition of 6l and 6y
(§5) Compound MSa PPBrat human rat human 1A2 2C9 2C19 2D6 3A4
(§6) a % of remaining after 30 min. b plasma protein binding rate (%) at 5 μM concentrations. c % of CYP
(§7) inhibition in human liver microsomes at 10 μM concentrations. […]

The target of another data set is T2, CYP2D6 (Homo sapiens, UniProt P10635).
T2 construct: from tissue; host or cells: human liver microsomes
As to the kind of experiment: CYP inhibition in human liver microsomes, 2D6. Type of data set: in vitro ADME. On the procedure: as §4, §5, §6, §7

A further data set deals with T3, CYP3A4 (Homo sapiens, UniProt P08684).
T3 construct: from tissue; host or cells: human liver microsomes
As to the kind of experiment: CYP inhibition in human liver microsomes, 3A4. Type of data set: in vitro ADME. On the procedure: as §4, §5, §6, §7

T2 sequence (P10635 whole entry): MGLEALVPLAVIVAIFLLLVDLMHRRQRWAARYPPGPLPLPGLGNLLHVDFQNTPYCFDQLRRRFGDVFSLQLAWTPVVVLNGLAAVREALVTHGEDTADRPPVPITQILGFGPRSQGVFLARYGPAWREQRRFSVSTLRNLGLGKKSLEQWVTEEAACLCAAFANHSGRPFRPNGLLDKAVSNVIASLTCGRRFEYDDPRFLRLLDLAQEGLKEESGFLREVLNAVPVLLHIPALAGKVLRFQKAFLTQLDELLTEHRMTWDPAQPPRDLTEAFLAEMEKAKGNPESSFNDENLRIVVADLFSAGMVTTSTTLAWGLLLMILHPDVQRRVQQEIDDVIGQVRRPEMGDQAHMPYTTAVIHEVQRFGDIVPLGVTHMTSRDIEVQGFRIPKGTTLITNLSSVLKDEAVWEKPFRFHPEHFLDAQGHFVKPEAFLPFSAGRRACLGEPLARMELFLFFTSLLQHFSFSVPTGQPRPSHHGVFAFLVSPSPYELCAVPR
T3 sequence (P08684 whole entry): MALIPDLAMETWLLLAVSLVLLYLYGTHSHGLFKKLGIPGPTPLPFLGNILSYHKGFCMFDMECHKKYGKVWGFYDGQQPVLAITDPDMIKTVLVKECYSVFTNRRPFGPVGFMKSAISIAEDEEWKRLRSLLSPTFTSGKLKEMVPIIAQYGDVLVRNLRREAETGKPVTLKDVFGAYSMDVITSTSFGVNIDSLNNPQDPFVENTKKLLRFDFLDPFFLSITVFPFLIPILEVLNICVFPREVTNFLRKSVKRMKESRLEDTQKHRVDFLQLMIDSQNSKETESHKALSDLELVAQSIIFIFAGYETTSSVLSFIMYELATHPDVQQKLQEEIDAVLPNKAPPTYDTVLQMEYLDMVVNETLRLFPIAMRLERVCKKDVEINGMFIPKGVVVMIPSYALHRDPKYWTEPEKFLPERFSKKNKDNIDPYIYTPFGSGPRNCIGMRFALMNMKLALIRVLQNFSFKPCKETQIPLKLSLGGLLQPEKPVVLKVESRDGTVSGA

Regarding `O=c1[nH]c(Nc2cc(Cl)cc(Cl)c2)nc2cc(Cl)ccc12` [6l, 7-Chloro-2-((3,5-dichlorophenyl)amino)quinazolin-4(3H)-one], in the data set with S. aureus ATCC25923, the MIC50 was 1 µM (≈ 0.341 µg/mL). Further, the negative-log IC50 (pIC50) was 5.07 in data set [1] and below 4.00 in data set [2]. The inhibition at 10 µM was 15.1% against CYP1A2, 20.1% against CYP2D6 and 32.2% against CYP3A4.

For `O=c1[nH]c(NCc2ccc(F)c(F)c2)nc2cc(Cl)ccc12` [6y, 7-Chloro-2-((3,4-difluorobenzyl)amino)quinazolin-4(3H)-one], in the data set with S. aureus ATCC25923, the MIC50 stood at 0.36 µM (≈ 0.116 µg/mL). The negative logarithm of the IC50 (pIC50) was 4.30 in data set [1] and 4.21 in data set [2]. Moreover, the results for the inhibition at 10 µM against CYP1A2, on CYP2D6 and against CYP3A4 were 92.5%, 90.1% and 91.4%, respectively.
